“And” between values parts separate entries of the source, which are not always exact repeats. Identical values can stand only once. Counter-ions that a name gives are not always drawn. Like-named read-outs stand apart in the source and are kept apart here.
Assays:
CYP2C19 = biological target: T1, CYP2C19 (Homo sapiens, UniProt P33261); experiment: P450 enzyme inhibition, CYP2C19; format: in vitro ADME; conditions: human liver microsomes
T1 construct: human liver microsomes (BD Gentest) (0.5 mg/mL); tissue BD Gentest; host or cells: human liver microsomes
T1 sequence (P33261 whole entry): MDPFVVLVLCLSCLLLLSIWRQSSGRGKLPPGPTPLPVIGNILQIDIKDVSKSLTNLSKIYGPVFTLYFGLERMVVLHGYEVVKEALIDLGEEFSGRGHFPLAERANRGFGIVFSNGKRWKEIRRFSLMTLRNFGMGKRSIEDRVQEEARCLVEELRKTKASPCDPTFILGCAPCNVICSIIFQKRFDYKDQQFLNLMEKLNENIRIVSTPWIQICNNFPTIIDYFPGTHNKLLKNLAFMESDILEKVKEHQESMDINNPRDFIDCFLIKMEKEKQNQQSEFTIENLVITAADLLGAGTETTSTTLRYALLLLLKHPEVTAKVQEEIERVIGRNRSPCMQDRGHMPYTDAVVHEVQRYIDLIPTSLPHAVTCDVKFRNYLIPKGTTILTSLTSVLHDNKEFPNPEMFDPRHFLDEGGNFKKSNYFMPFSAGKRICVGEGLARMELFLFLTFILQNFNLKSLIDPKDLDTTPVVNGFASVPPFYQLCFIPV
Experimental: (§1) Eight cytochrome p450 enzyme inhibition reactions of human liver microsomes were performed using compound 77 of the present invention as a representative example.
(§2) The main reaction systems and processes: in 37° C. water bath, the test compounds (7 concentrations, 0, 0.25, 0.5, 5, 10, 25, and 50 uM; the final methanol concentration was 1% in the system), human liver microsomes (BD Gentest) (0.5 mg/mL) and reducing coenzyme II (Roche 10621706001) (1 mg/mL) and the corresponding cytochrome p450 enzyme probe substrate were co-incubated for 5 to 20 minutes. Among them, (1) the probe substrate for CYP1A2 was Phenacetin ([…]) (Sigma), and the selective inhibitor alpha-naphthoflavone (2 uM) (Sigma) was for parallel detection as positive control, and they were incubated for 20 minutes. (2) The probe substrate for CYP2b6 was Bupropion (40 uM) (Sigma) and the selective inhibitor Ticlopidine (10 uM) (Sigma) was for parallel detection as positive control, and they were incubated for 20 minutes. (3) The probe substrate of CYP2C8 was Amodiaquine (1 uM) (Sigma), and the selective inhibitor Montelukast (10 uM) (Sigma) was for parallel detection as positive control, and they were incubated for 20 minutes. (4) The probe substrate for CYP2C9 was Diclofenac (2.5 uM) (Sigma), and the selective inhibitor Sulphaphenazole (10 uM) (Sigma) was for parallel detection as positive control, and they were incubated for 20 minutes. (5) The probe substrate for CYP2C19 was Mephenytoin (40 uM) (Sigma), and the selective inhibitor Ticlopidine (10 uM) (Sigma) was for parallel detection as positive control, and they were incubated for 20 minutes. (6) The probe substrate for CYP2D6 was Dextromethorphan (5 uM) (Sigma), and the selective inhibitor Quinidine (10 uM) (Sigma) was for parallel detection as positive control, and they were incubated for 20 minutes. (7) The probe substrates for CYP3A4-T and CYP3A4-M were Testosterone (5 uM) (Sigma) and Midazolam (5 uM) (Sigma), respectively, and the selective inhibitor was Ketoconazole (1 uM) (Sigma), they were detected in parallel as positive control, and incubated for 5 minutes. The reaction system was quenched by adding methanol containing the corresponding internal standard. The internal standard compound was Tolbutamide (Sigma). The concentration of the corresponding metabolites was determined by LC/MS/MS. For the data analysis, the decrease in peak area of the metabolite of the sample after addition of compound 77 relative to the peak area of the metabolite of the solvent control sample was used to calculate the IC50 (concentration of the test substance at 50% inhibition). The percentages of peak areas of metabolites of CYP1A2, CYP2B6, CYP2C8, CYP2C9, 15CYP2C19, CYP2D6, CYP3A4-T, and CYP3A4-M probe substrates after addition of different concentrations of compound 77 and selective inhibitors relative to the solvent control peak areas were shown in the Table 7.

CYP2C9 = biological target: T2, CYP2C9 (Homo sapiens, UniProt P11712); experiment: P450 enzyme inhibition, CYP2C9; format: in vitro ADME; conditions: human liver microsomes
T2 construct: human liver microsomes (BD Gentest) (0.5 mg/mL); tissue BD Gentest; host or cells: human liver microsomes
T2 sequence (P11712 whole entry): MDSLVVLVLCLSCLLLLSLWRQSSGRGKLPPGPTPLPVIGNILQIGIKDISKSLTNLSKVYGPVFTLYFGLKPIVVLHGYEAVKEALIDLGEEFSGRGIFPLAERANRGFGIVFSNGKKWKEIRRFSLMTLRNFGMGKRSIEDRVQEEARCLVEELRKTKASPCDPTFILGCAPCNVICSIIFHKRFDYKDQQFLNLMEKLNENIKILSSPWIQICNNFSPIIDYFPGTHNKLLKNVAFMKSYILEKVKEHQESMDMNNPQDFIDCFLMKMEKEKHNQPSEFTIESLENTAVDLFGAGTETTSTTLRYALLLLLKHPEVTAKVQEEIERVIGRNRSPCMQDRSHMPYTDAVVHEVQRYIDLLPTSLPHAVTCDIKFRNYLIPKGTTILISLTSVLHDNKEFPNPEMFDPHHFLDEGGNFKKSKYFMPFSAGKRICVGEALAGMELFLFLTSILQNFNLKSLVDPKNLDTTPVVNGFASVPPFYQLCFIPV
Experimental: as §1, §2

[1] = In vivo pharmacokinetics in rats; set-up: species or system rat
Experimental: The pharmacokinetic experiments in rats were performed using compound 77 of the present invention as a representative example.
Procedure: 6 SD male rats (˜200 g, purchased from Shanghai Sippr-BK Experimental Animal Co., Ltd) were selected and divided into two groups according to the experimental design table (Table 9). Animals were administered intravenously and orally. Dosing was performed once on the treating day and the doses were 5 mg/kg and 10 mg/kg, respectively.
Drug formulation method: the required amount of test sample was added to a certain volume of 40% (HP-β-CD) aqueous solution, and then stirred under heating (temperature 25-45° C.) until dissolution, then the same volume of deionized water was added and adjusted to pH 5 with NaOH, to prepare 20% HP-β-CD clear aqueous solution.
For the intravenous administration group, blood samples were taken from jugular veins before administration and 2 min, 5 min, 15 min, 30 min, 1 h, 2 h, 4 h, 6 h, 8 h, and 24 h after administration; for the oral administration group, blood samples were taken from jugular veins before administration and 5 min, 30 min, 1 h, 2 h, 4 h, 6 h, 8 h, 10 h, and 24 h. The collected blood samples were centrifuged to separate plasma within 30 min (centrifugation condition: 8000 rpm, 6 minutes, 2-8° C.). The plasma samples were stored at −80° C. in a freezer before assay. The plasma samples were used for LC-MS/MS method development and sample testing.
The pharmacokinetic parameters (AUC(0-t), AUC(0-∞), T1/2, MRT(0-∞), Cmax, Tmax and F) were calculated using WinNonlin Professional v5.2 (Pharsight USA). In addition, the bioavailability (F) was calculated by the following formula.

[2] = SD rats, intravenously, 5 mg/kg, individual animals 101-103, listed as methanesulfonate of compound 77, 5 mg/kg
[3] = SD rats, orally, 10 mg/kg, individual animals 201-203, listed as methanesulfonate of compound 77, 10 mg/kg
[4] = male, SD, rat, plasma, iv, 5 mg/kg, intravenously, Mean
[5] = male, SD, rat, plasma, iv, 5 mg/kg, intravenously, individual animals 101-103
[6] = male, SD, rat, plasma, po, 10 mg/kg, orally, Mean
[7] = male, SD, rat, plasma, po, 10 mg/kg, orally, individual animals 201-203

COCCOc1ccc2c(c1)ncn2-c1ccc(NC(=O)Nc2cc(C(C)(C)C)n[nH]2)cc1 [Compound 77, 1-(5-tert-butyl-2H-pyrazol-3-yl)-3-{4-[5-(2-methoxyl-ethoxyl)-benzimidazol-1-yl]-phenyl}-urea]
CYP2C19 Remaining % (CYP2C19; Concentration 0.25 uM): 104.2%
CYP2C19 Remaining % (CYP2C19; Concentration 0.5 uM): 100.8%
CYP2C19 Remaining % (CYP2C19; Concentration 5 uM): 106.9%
CYP2C19 Remaining % (CYP2C19; Concentration 10 uM): 102.9%
CYP2C19 Remaining % (CYP2C19; Concentration 25 uM): 91.3%
CYP2C19 Remaining % (CYP2C19; Concentration 50 uM): 67.6%
IC50 (CYP2C19; read-out: half-inhibitory concentration (IC50) of CYP2C19): > 50 µM
CYP2C9 Remaining % (CYP2C9; Concentration 0.25 uM): 99.6%
CYP2C9 Remaining % (CYP2C9; Concentration 0.5 uM): 104.5%
CYP2C9 Remaining % (CYP2C9; Concentration 5 uM): 99.0%
CYP2C9 Remaining % (CYP2C9; Concentration 10 uM): 90.9%
CYP2C9 Remaining % (CYP2C9; Concentration 25 uM): 72.5%
CYP2C9 Remaining % (CYP2C9; Concentration 50 uM): 39.9%
IC50 (CYP2C9; read-out: half-inhibitory concentration (IC50) of CYP2C9): 41.6 µM

COCCOc1ccc2c(c1)ncn2-c1ccc(NC(=O)Nc2cc(C(C)(C)C)n[nH]2)cc1 [Compound 77 Mesylate, 1-(5-tert-butyl-2H-pyrazol-3-yl)-3-{4-[5-(2-methoxyl-ethoxyl)-benzimidazol-1-yl]-phenyl}-urea]
AUC(0-t) [1, 2]: 14458 ng·h/mL and 13825 ng·h/mL
AUC(0-∞) [1, 2]: 14501 ng·h/mL and 13969 ng·h/mL
CL [1, 2]: 5.75 mL/min/kg and 5.97 mL/min/kg
Cmax [1, 2]: 20795 ng/mL and 17312 ng/mL
MRT(0-t) [1, 2]: 3.86 h and 4.21 h
Vss [1, 2]: 1.355 L/kg and 1.599 L/kg
Vz [1, 2]: 1.473 L/kg and 2.01 L/kg
t½ [1, 2]: 2.96 h and 3.89 h
AUC(0-t) [1, 3]: 7249 ng·h/mL and 6927 ng·h/mL
AUC(0-∞) [1, 3]: 7294 ng·h/mL and 7067 ng·h/mL
Cmax [1, 3]: 1082 ng/mL and 1095 ng/mL
MRT(0-t) [1, 3]: 5.07 h and 5.45 h
t½ [1, 3]: 3.36 h and 4.53 h
AUC(0-t) ([1]; male, SD, rat, plasma, iv, 5 mg/kg, administered intravenously, 5 mg/kg, read-out: AUC(0-t)): 14400 ng·h/mL
Cmax ([1]; male, SD, rat, plasma, iv, 5 mg/kg, administered intravenously, 5 mg/kg, read-out: Cmax): 18700 ng/mL
AUC(0-t) ([1]; male, SD, rat, plasma, iv, 5 mg/kg, intravenously, 5 mg/kg, Mean, read-out: AUC(0-t)): 14400 ng·h/mL
Cmax ([1]; male, SD, rat, plasma, iv, 5 mg/kg, intravenously, 5 mg/kg, Mean, read-out: Cmax): 18700 ng/mL
MRT inf ([1]; male, SD, rat, plasma, iv, 5 mg/kg, intravenously, 5 mg/kg, Mean, read-out: MRT (0-∞)): 4.27 h
MRT last ([1]; male, SD, rat, plasma, iv, 5 mg/kg, intravenously, 5 mg/kg, Mean, read-out: MRT(0-t)): 4.03 h
Vd ([1]; male, SD, rat, plasma, iv, 5 mg/kg, intravenously, 5 mg/kg, Mean, read-out: Vss): 1.47 L/kg
Vd ([1]; male, SD, rat, plasma, iv, 5 mg/kg, intravenously, 5 mg/kg, Mean, read-out: Vz): 1.8 L/kg
half-life ([1]; male, SD, rat, plasma, iv, 5 mg/kg, intravenously, 5 mg/kg, Mean, read-out: t½ (converted)): 3.62 h
AUC(0-t) ([1]; male, SD, rat, plasma, iv, 5 mg/kg, intravenously, 5 mg/kg, individual animals 101-103, read-out: AUC(0-t)): 14900 ng·h/mL
Cmax ([1]; male, SD, rat, plasma, iv, 5 mg/kg, intravenously, 5 mg/kg, individual animals 101-103, read-out: Cmax): 18000 ng/mL
MRT inf ([1]; male, SD, rat, plasma, iv, 5 mg/kg, intravenously, 5 mg/kg, individual animals 101-103, read-out: MRT (0-∞)): 4.42 h
MRT last ([1]; male, SD, rat, plasma, iv, 5 mg/kg, intravenously, 5 mg/kg, individual animals 101-103, read-out: MRT(0-t)): 4.04 h
Vd ([1]; male, SD, rat, plasma, iv, 5 mg/kg, intravenously, 5 mg/kg, individual animals 101-103, read-out: Vss): 1.46 L/kg
Vd ([1]; male, SD, rat, plasma, iv, 5 mg/kg, intravenously, 5 mg/kg, individual animals 101-103, read-out: Vz): 1.91 L/kg
half-life ([1]; male, SD, rat, plasma, iv, 5 mg/kg, intravenously, 5 mg/kg, individual animals 101-103, read-out: t½ (converted)): 4.01 h
AUC(0-inf) [1, 4]: 14500 ng·h/mL
clearance [1, 4]: 5.73 mL/min/kg
AUC(0-inf) [1, 5]: 15200 ng·h/mL
clearance [1, 5]: 5.5 mL/min/kg
AUC(0-t) ([1]; male, SD, rat, plasma, po, 10 mg/kg, administered orally, 10 mg/kg, read-out: AUC(0-t)): 6770 ng·h/mL
Cmax ([1]; male, SD, rat, plasma, po, 10 mg/kg, administered orally, 10 mg/kg, read-out: Cmax): 1050 ng/mL
AUC(0-t) ([1]; male, SD, rat, plasma, po, 10 mg/kg, orally, 10 mg/kg, Mean, read-out: AUC(0-t)): 6770 ng·h/mL
Cmax ([1]; male, SD, rat, plasma, po, 10 mg/kg, orally, 10 mg/kg, Mean, read-out: Cmax): 1050 ng/mL
MRT last ([1]; male, SD, rat, plasma, po, 10 mg/kg, orally, 10 mg/kg, Mean, read-out: MRT(0-t)): 5.38 h
half-life ([1]; male, SD, rat, plasma, po, 10 mg/kg, orally, 10 mg/kg, Mean, read-out: t½ (converted)): 3.86 h
AUC(0-t) ([1]; male, SD, rat, plasma, po, 10 mg/kg, orally, 10 mg/kg, individual animals 201-203, read-out: AUC(0-t)): 6140 ng·h/mL
Cmax ([1]; male, SD, rat, plasma, po, 10 mg/kg, orally, 10 mg/kg, individual animals 201-203, read-out: Cmax): 977 ng/mL
MRT last ([1]; male, SD, rat, plasma, po, 10 mg/kg, orally, 10 mg/kg, individual animals 201-203, read-out: MRT(0-t)): 5.61 h
half-life ([1]; male, SD, rat, plasma, po, 10 mg/kg, orally, 10 mg/kg, individual animals 201-203, read-out: t½ (converted)): 3.7 h
AUC(0-inf) [1, 6]: 6860 ng·h/mL
MRT [1, 6]: 5.68 h
AUC(0-inf) [1, 7]: 6210 ng·h/mL
MRT [1, 7]: 5.9 h
Tmax ([1]; male, rat, plasma, po, SD rats, orally, 10 mg/kg, Mean): 2 h
bioavailability ([1]; male, rat, plasma, SD rats, oral 10 mg/kg versus intravenous 5 mg/kg): 23.5%

From patent publication US10647680B2, “Urea compound, preparation method therefor and medical use thereof” (Ancureall Pharmaceutical (Shanghai) Co., Ltd., priority 2016, dated 2020)
